Results taken from patent publication US4439365A, “Novel hydroxy substituted prostanoic acids, esters, congeners, intermediates and process” (American Cyanamid Company, priority 1979, dated 1984).

Assays:
[1] = test system: ulcerogenic properties of indomethacin; test: Protection against indomethacin-induced ulcers in rats; type: in vivo; conditions: indomethacin 20 mg./kg. s.c.
Protocol: The compounds of this invention provide protection against the ulcerogenic properties of indomethacin. This assay was carried out in the following manner.
Rats were starved for 48 hours (water was given ad libitum). Indomethacin (20 mg./kg. of body weight) was administered by the subutaneous route and one-half the dose of the test compound was administered by gavage at the same time. After three hours, the second half of the test compound was administered also by Gavage. Five hours after the administration of indomethacin the animals were decapitated and the stomachs removed. The stomachs were washed with distilled water, blotted on gauze, cut along the larger curvature, and the contents rinsed with distilled water. The stomachs were spread out, pinned on a cork and visualized under magnifying glass for ulcers. The criteria for scoring of ulcers was as previously reported. [Abdel-Galil et al. Brit. J. Pharmac. Chemotherapy 33:1-14 (1968)]. […]
Control animals treated with indomethacin but not test compound consistently give scores of about 3.0-3.5. Control animals treated with neither indomethacin nor test compound give scores of about 0.5-0.8. Compounds producing a score of 2.5 or lower are considered to be active.

gastric acid secretion = test: Gastric acid secretion inhibition, modified Shay rat procedure; type: in vivo, rats (male, CFE strain); conditions: pylorus-ligated rats, intraduodenal dose 100 mg./kg., 3 hours, 20% or more active, read-out: Percent Inhibition of gastric acid secretion
Protocol: The novel compounds of the present invention are also effective inhibitors of gastric acid secretion and of ulcer development in experimental animals, and thus are potentially valuable as agents for the control of gastric acid secretion and of gastric erosion and as anti-ulcer agents. Gastric acid secretion inhibitory action is usually measured by the "Shay rat" procedure^(1,2) with some modifications as follows.
The rats (male, CFE strain), were starved for 48 hours (water was given ad libitum) to permit evacuation of stomach contents. On the morning of the experiment, under ether anesthesia, the abdominal region was shaved and a midline incision (1-11/2") was made with a scapel. […]
The abdominal cavity was exposed by cutting with scissors and the esophagus close to the stomach was clamped off with a hemostat, the stomach was removed by cutting above the hemostat (the esophagus was cut) and between the two sutures. […] The supernatant was collected, volume measured and recorded, 2 drops of a phenolphthalein indicator (1% in 95% ethanol) were added and the solution was titrated with 0.02 N NaOH (or with 0.04 N NaOH when large volumes of stomach contents were encountered) to pH 8.4 (because of usual coloring of the stomach contents, phenolphthalein was only used to permit visual indication that the end point was near) and the amount of acid present was calculated. […]

[2] = total oral dose 25 mg./kg. in two halves by gavage, scale 0 normal stomach to 4 many ulcers, mainly large, 2.5 or lower active, control 3.2

CCCCCC(O)/C=C\C1CCC(=O)C1CCCCCCC(=O)O (stereo not drawn) [9-oxo-15-hydroxy-13-cis-prostenoic acid]
Score Treated (ulcer score) ([1]; total oral dose 100 mg./kg. in two halves by gavage, scale 0-4, 2.5 or lower active, control 3.0): 1.3

CCCCC(CC)C(O)/C=C/C1CCC(=O)C1CCCCCCC(=O)O (stereo not drawn) [9-oxo-15-hydroxy-16-ethyl-13-trans-prostenoic acid]
Score Treated (ulcer score) [1, 2]: 1.7

CCCCC[C@@H](O)/C=C/[C@H]1CCC(=O)[C@@H]1CCCCSCC(=O)O (relative stereo) [9-oxo-3-thin-15-epi-hydroxy-13-trans-prostenoic acid]
Score Treated (ulcer score) [1, 2]: 2.3

CCCCC[C@H](O)/C=C/[C@H]1CCC(=O)[C@@H]1CCCCSCC(=O)O (relative stereo) [9-oxo-3-thia-15-hydroxy-13-trans-prostenoic acid]
Score Treated (ulcer score) [1, 2]: 1.8

CCCCCC(O)/C=C/[C@H]1CCC(=O)[C@]1(C)CCCCCCC(=O)O (relative stereo) [9-oxo-8β-methyl-15-hydroxy-13-trans-prostenoic acid]
Score Treated (ulcer score) ([1]; total oral dose 12.5 mg./kg. in two halves by gavage, scale 0-4, 2.5 or lower active, control 3.0): 2.0

CCCCCC(O)/C=C/C1CCC(=O)C1CCCCCC(CC)C(=O)O (stereo not drawn) [9-oxo-15-hydroxy-2-ethyl-13-trans-prostenoic acid]
Score Treated (ulcer score) ([1]; total oral dose 50 mg./kg. in two halves by gavage, scale 0-4, 2.5 or lower active, control 3.0): 2.2

CCCCCC(O)/C=C/C1CCC(=O)C1CCCCC(C)(C)CC(=O)O (stereo not drawn) [9-oxo-15-hydroxy-3,3-dimethyl-13-trans-prostenoic acid]
inhibition at 100 mg/kg (gastric acid secretion): 51%
